The inhibition is the share of the control response that was lost under treatment. Lower therefore signals a response near the control.

The target in the assay is T1, NO synthase (Rattus norvegicus, UniProt P29476).
T1 construct: the tissue was broken down with a Polytron homogenizer for 1 min at 6,000 rpm; from tissue; host or cells: rat cerebellum, 20,000 g supernatant of homogenate
Kind of assay: HTS NO synthase assay. Type of assay: biochemical. Particulars: enzyme preparation from rat cerebelli, [3H]arginine substrate. The method, then: This assay allows the determination of the percentage inhibition of NO synthase by a compound of formula I according to the invention by measurement of the NO synthase activity in the presence of the compound. In this procedure, NO synthase is mixed together with radioactively labelled arginine and the particular compound of formula I under suitable conditions. After interruption of the NO formation reaction at a given point in time, the amount of unreacted arginine is determined directly or indirectly. […]
In this HTS NO synthase assay, radioactive arginine is used as the substrate. […] With the aid of this procedure, the arginine substrate which remains is bonded to the cation exchanger, while the radioactive citrulline formed enzymatically is washed out quantitatively. After drying of the filter MTP and addition of scintillation liquid, the bound arginine can be counted on a scintillation counter. An NO synthase reaction which has not been inhibited is reflected in a low radioactivity. […] That is to say a high radioactivity is found on the filter. […]
The plate was then dried for 1 hour at 60° C. in a drying cabinet. […] After a waiting time of 1 hour, the plate was measured on a β-counter.

Molecule `Cc1ccn2c(N)c(-c3ccsc3)nc2c1` [Example 1, 7-Methyl-2-thiophen-3-yl-imidazo[1,2-a]pyridin-3-ylamine] registered an inhibition at 10 µM of 89%.

(Values after US20040122044A1, “Utilization of substituted imidazo [1,2-A]-pyridin-3-yl-amide and imidazo [1,2-A]-pyridin-3-yl-amine compounds in pharmaceutical formulations” (priority 2001, published 2004).)
